Results as given in patent US9125913B2, “Bcl-2-selective apoptosis-inducing agents for the treatment of cancer and immune diseases” (AbbVie Inc., priority 2008, dated 2015).

test system: GST-Bcl-2; assay: TR-FRET binding assay, Bcl-2; conditions: TR-FRET Ki values
Protocol: Tb-anti-GST antibody was purchased from Invitrogen (Catalog No. PV4216).
Representative compounds were serially diluted in dimethyl sulfoxide (DMSO) starting at 50 μM (2× starting concentration; 10% DMSO) and 10 μL were transferred into a 384-well plate.
The samples were then mixed on a shaker for 1 minute and incubated for an additional 3 hours at room temperature. For each assay, the probe/antibody and protein/probe/antibody were included on each assay plate as negative and positive controls, respectively. Fluorescence was measured on the Envision (Perkin Elmer) using a 340/35 nm excitation filter and 520/525 (F-Bak peptide) and 495/510 nm (Tb-labeled anti-Histidine antibody) emission filters.
The inhibition constant (Ki) is the dissociation constant of an enzyme-inhibitor complex or a protein/small molecule complex, wherein the small molecule is inhibiting binding of one protein to another protein or peptide. […] Inhibition constants were determined using Wang's equation (Wang Z-X., An Exact Mathematical Expression For Describing Competitive Binding Of Two Different Ligands To A Protein Molecule. FEBS Lett. 1995, 360:111-4).

Row | Compound | Binding selectivity ratio (Bcl-XL Ki/Bcl-2 Ki)
1 | COCCN1CCC(Nc2ccc(S(=O)(=O)NC(=O)c3ccc(N4CCN(CC5=C(c6ccc(Cl)cc6)CC(C)(C)CC5)CC4)cc3Oc3cccc4[nH]ccc34)cc2[N+](=O)[O-])CC1 [EXAMPLE 194, 4-(4-{[2-(4-chlorophenyl)-4,4-dimethylcyclohex-1-en-1-yl]methyl}piperazin-1-yl)-2-(1H-indol-4-yloxy)-N-[(4-{[1-(2-methoxyethyl)piperidin-4-yl]amino}-3-nitrophenyl)sulfonyl]benzamide] | 212.4
2 | CC1(C)CCC(CN2CCN(c3ccc(C(=O)NS(=O)(=O)c4ccc(NCCN5CCNC(=O)C5)c([N+](=O)[O-])c4)c(Oc4cccc5[nH]ccc45)c3)CC2)=C(c2ccc(Cl)cc2)C1 [EXAMPLE 280, 4-(4-{[2-(4-chlorophenyl)-4,4-dimethylcyclohex-1-en-1-yl]methyl}piperazin-1-yl)-2-(1H-indol-4-yloxy)-N-[(3-nitro-4-{[2-(3-oxopiperazin-1-yl)ethyl]amino}phenyl)sulfonyl]benzamide] | 1097.2
3 | CC1(C)CCC(CN2CCN(c3ccc(C(=O)NS(=O)(=O)c4ccc(NCC5CN(CC(F)F)CCO5)c([N+](=O)[O-])c4)c(Oc4cccc5[nH]cnc45)c3)CC2)=C(c2ccc(Cl)cc2)C1 (stereo not drawn) [EXAMPLE 415, 2-(1H-benzimidazol-4-yloxy)-4-(4-{[2-(4-chlorophenyl)-4,4-dimethylcyclohex-1-en-1-yl]methyl}piperazin-1-yl)-N-{[4-({[4-(2,2-difluoroethyl)morpholin-2-yl]methyl}amino)-3-nitrophenyl]sulfonyl}benzamide] | 17326.89211
4 | CN(C)CC(=O)N1CCO[C@H](COc2ncc(S(=O)(=O)NC(=O)c3ccc(N4CCN(CC5=C(c6ccc(Cl)cc6)CC(C)(C)CC5)CC4)cc3Oc3cccc4[nH]ncc34)cc2Cl)C1 [EXAMPLE 425, N-[(5-chloro-6-{[(2S)-4-(N,N-dimethylglycyl)morpholin-2-yl]methoxy}pyridin-3-yl)sulfonyl]-4-(4-{[2-(4-chlorophenyl)-4,4-dimethylcyclohex-1-en-1-yl]methyl}piperazin-1-yl)-2-(1H-indazol-4-yloxy)benzamide] | 1282
5 | CC1(C)CCC(CN2CCN(c3ccc(C(=O)NS(=O)(=O)c4cnc(OCC5(F)CCOCC5)c(F)c4)c(Oc4cccc5[nH]cnc45)c3)CC2)=C(c2ccc(Cl)cc2)C1 [EXAMPLE 442, 2-(1H-benzimidazol-4-yloxy)-4-(4-{[2-(4-chlorophenyl)-4,4-dimethylcyclohex-1-en-1-yl]methyl}piperazin-1-yl)-N-({5-fluoro-6-[(4-fluorotetrahydro-2H-pyran-4-yl)methoxy]pyridin-3-yl}sulfonyl)benzamide] | 3358.9
6 | CC1(C)CCC(CN2CCN(c3ccc(C(=O)NS(=O)(=O)c4ccc(NCC56CC7CC(C5)C(O)[C@H](C7)C6)c([N+](=O)[O-])c4)c(Oc4ccc5[nH]ccc5c4)c3)CC2)=C(c2ccc(Cl)cc2)C1 (stereo partly drawn) [EXAMPLE 321, 4-(4-{[2-(4-chlorophenyl)-4,4-dimethylcyclohex-1-en-1-yl]methyl}piperazin-1-yl)-N-{[4-({[(3R)-4-hydroxy-1-adamantyl]methyl}amino)-3-nitrophenyl]sulfonyl}-2-(1H-indol-5-yloxy)benzamide] | >957.9
7 | CC1(C)CCC(CN2CCN(c3ccc(C(=O)NS(=O)(=O)c4ccc(NCC5CCCCC5)c([N+](=O)[O-])c4)c(Oc4ccc5[nH]ccc5c4)c3)CC2)=C(c2ccc(Cl)cc2)C1 [EXAMPLE 259, 4-(4-{[2-(4-chlorophenyl)-4,4-dimethylcyclohex-1-en-1-yl]methyl}piperazin-1-yl)-N-({4-[(cyclohexylmethyl)amino]-3-nitrophenyl}sulfonyl)-2-(1H-indol-5-yloxy)benzamide] | >330.9
8 | CC1(C)CCC(CN2CCN(c3ccc(C(=O)NS(=O)(=O)c4ccc(OCCCS(C)(=O)=O)c([N+](=O)[O-])c4)c(Oc4cccc5[nH]ccc45)c3)CC2)=C(c2ccc(Cl)cc2)C1 [EXAMPLE 316, 4-(4-{[2-(4-chlorophenyl)-4,4-dimethylcyclohex-1-en-1-yl]methyl}piperazin-1-yl)-2-(1H-indol-4-yloxy)-N-({4-[3-(methylsulfonyl)propoxy]-3-nitrophenyl}sulfonyl)benzamide] | 533.7
9 | CC1(C)CCC(CN2CCN(c3ccc(C(=O)NS(=O)(=O)c4ccc(NCCCN5CCS(=O)(=O)CC5)c([N+](=O)[O-])c4)c(Oc4ccc5[nH]ccc5c4)c3)CC2)=C(c2ccc(Cl)cc2)C1 [EXAMPLE 266, 4-(4-{[2-(4-chlorophenyl)-4,4-dimethylcyclohex-1-en-1-yl]methyl}piperazin-1-yl)-N-[(4-{[3-(1,1-dioxidothiomorpholin-4-yl)propyl]amino}-3-nitrophenyl)sulfonyl]-2-(1H-indol-5-yloxy)benzamide] | >3607.7
10 | CN1CCN(Nc2ccc(S(=O)(=O)NC(=O)c3ccc(N4CCN(CC5=C(c6ccc(Cl)cc6)CC(C)(C)CC5)CC4)cc3Oc3cccc4[nH]ccc34)cc2[N+](=O)[O-])CC1 [EXAMPLE 190, 4-(4-{[2-(4-chlorophenyl)-4,4-dimethylcyclohex-1-en-1-yl]methyl}piperazin-1-yl)-2-(1H-indol-4-yloxy)-N-({4-[(4-methylpiperazin-1-yl)amino]-3-nitrophenyl}sulfonyl)benzamide] | 189.6
11 | CN1CCN(Nc2ccc(S(=O)(=O)NC(=O)c3ccc(N4CCN(CC5=C(c6ccc(Cl)cc6)CC(C)(C)CC5)CC4)cc3Oc3cccc4[nH]ccc34)cc2S(=O)(=O)C(F)(F)F)CC1 [EXAMPLE 215, 4-(4-{[2-(4-chlorophenyl)-4,4-dimethylcyclohex-1-en-1-yl]methyl}piperazin-1-yl)-2-(1H-indol-4-yloxy)-N-({4-[(4-methylpiperazin-1-yl)amino]-3-[(trifluoromethyl)sulfonyl]phenyl}sulfonyl)benzamide] | 120.8
12 | CC1(C)CCC(CN2CCN(c3ccc(C(=O)NS(=O)(=O)c4cnc(OCC5(F)CCOCC5)c(Cl)c4)c(Oc4cccc5[nH]cnc45)c3)CC2)=C(c2ccc(Cl)cc2)C1 [EXAMPLE 443, 2-(1H-benzimidazol-4-yloxy)-N-({5-chloro-6-[(4-fluorotetrahydro-2H-pyran-4-yl)methoxy]pyridin-3-yl}sulfonyl)-4-(4-{[2-(4-chlorophenyl)-4,4-dimethylcyclohex-1-en-1-yl]methyl}piperazin-1-yl)benzamide] | 1935.7
13 | CN1CCN(Nc2ccc(S(=O)(=O)NC(=O)c3ccc(N4CCN(CC5=C(c6ccc(Cl)cc6)CC(C)(C)CC5)CC4)cc3Oc3ccc4[nH]ccc4c3)cc2S(=O)(=O)C(F)(F)F)CC1 [EXAMPLE 220, 4-(4-{[2-(4-chlorophenyl)-4,4-dimethylcyclohex-1-en-1-yl]methyl}piperazin-1-yl)-2-(1H-indol-5-yloxy)-N-({4-[(4-methylpiperazin-1-yl)amino]-3-[(trifluoromethyl)sulfonyl]phenyl}sulfonyl)benzamide] | 163.7
14 | CC(C1=C(c2ccc(Cl)cc2)CC(C)(C)CC1)N1CCN(c2ccc(C(=O)NS(=O)(=O)c3ccc(NCC4CCOCC4)c([N+](=O)[O-])c3)c(Oc3ccc4[nH]ccc4c3)c2)CC1 (stereo not drawn) [EXAMPLE 253, 4-(4-{1-[2-(4-chlorophenyl)-4,4-dimethylcyclohex-1-en-1-yl]ethyl}piperazin-1-yl)-2-(1H-indol-5-yloxy)-N-({3-nitro-4-[(tetrahydro-2H-pyran-4-ylmethyl)amino]phenyl}sulfonyl)benzamide] | >4663.3
15 | CC(C)(C)c1ccc(CN2CCN(c3ccc(C(=O)NS(=O)(=O)c4ccc(NCC5CCOCC5)c([N+](=O)[O-])c4)c(Oc4ccc5[nH]ccc5c4)c3)CC2)c(-c2ccc(Cl)cc2)c1 [EXAMPLE 341, 4-{4-[(5-tert-butyl-4′-chloro-1,1′-biphenyl-2-yl)methyl]piperazin-1-yl}-2-(1H-indol-5-yloxy)-N-({3-nitro-4-[(tetrahydro-2H-pyran-4-ylmethyl)amino]phenyl}sulfonyl)benzamide] | >50.8
16 | O=C(NS(=O)(=O)c1ccc(NCC2CCOCC2)c([N+](=O)[O-])c1)c1ccc(N2CCN(CC3=C(c4ccc(Cl)cc4)CCC(N4CCOCC4)C3)CC2)cc1Oc1ccc2[nH]ccc2c1 (stereo not drawn) [EXAMPLE 249, 4-(4-{[2-(4-chlorophenyl)-5-morpholin-4-ylcyclohex-1-en-1-yl]methyl}piperazin-1-yl)-2-(1H-indol-5-yloxy)-N-({3-nitro-4-[(tetrahydro-2H-pyran-4-ylmethyl)amino]phenyl}sulfonyl)benzamide] | >7302.0
17 | CC1(C)CCC(CN2CCN(c3ccc(C(=O)NS(=O)(=O)c4ccc(NC5CCC(N6CCOCC6)CC5)c([N+](=O)[O-])c4)c(Oc4ccc5[nH]ccc5c4)c3)CC2)=C(c2ccc(Cl)cc2)C1 (stereo not drawn) [EXAMPLE 363, 4-(4-{[2-(4-chlorophenyl)-4,4-dimethylcyclohex-1-en-1-yl]methyl}piperazin-1-yl)-2-(1H-indol-5-yloxy)-N-({4-[(4-morpholin-4-ylcyclohexyl)amino]-3-nitrophenyl}sulfonyl)benzamide] | >3670.5
18 | CC1(C)CCC(CN2CCN(c3ccc(C(=O)NS(=O)(=O)c4ccc(NCC5CCOCC5)c([N+](=O)[O-])c4)c(Oc4ccc5[nH]ccc5c4)c3)CC2)=C(c2ccc(Cl)cc2)C1 [Example 177, 4-(4-{[2-(4-chlorophenyl)-4,4-dimethylcyclohex-1-en-1-yl]methyl}piperazin-1-yl)-2-(1H-indol-5-yloxy)-N-({3-nitro-4-[(tetrahydro-2H-pyran-4-ylmethyl)amino]phenyl}sulfonyl)benzamide] | 799.7
